According to publication PMC12136031 (Science Advances, 2025):
Like-named read-outs stand apart in the source and are kept apart here.

Columns and labels:
DCAF7 = DCAF7 (Homo sapiens, UniProt P61962); experiment: Microscale thermophoresis (MST) of DCAF7 and BC18630; settings: read-out: Kd (MST binding coefficient)
SARS-CoV-2 = experiment: In vivo hamster SARS-CoV-2 infection assay; set-up: species or system Syrian golden hamster
[1] = system: SARS-CoV-2 (USA-WA-1/2020); assay type: in vivo, K18-hACE2 mice; settings: for Survival (mice survived): BID thereafter, until day 10
Vero E6 cells = settings: read-out: Cytotoxicity CC50 Vero E6 MEM
in vitro = settings: African green monkey

Sequence of DCAF7 (P61962 whole entry): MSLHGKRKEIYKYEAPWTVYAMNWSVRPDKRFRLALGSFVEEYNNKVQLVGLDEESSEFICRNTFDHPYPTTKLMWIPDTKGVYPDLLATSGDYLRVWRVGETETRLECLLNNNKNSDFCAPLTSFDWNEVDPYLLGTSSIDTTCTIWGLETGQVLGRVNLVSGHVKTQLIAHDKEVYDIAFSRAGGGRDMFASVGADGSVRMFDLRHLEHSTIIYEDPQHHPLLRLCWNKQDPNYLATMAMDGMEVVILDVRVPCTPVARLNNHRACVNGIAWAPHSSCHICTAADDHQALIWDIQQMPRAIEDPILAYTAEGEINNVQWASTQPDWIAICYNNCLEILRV

Cl.c1ccc2c(Nc3ccc4[nH]ccc4c3)nc(-c3ccncc3)nc2c1 [BC18630, N-1H-indol-5-yl-2-pyridin-4-ylquinazolin-4-amine hydrochloride]
Kd (DCAF7): ~4.38 µM | NP-positive epithelial staining (IHC of lung slices) (SARS-CoV-2; 4 dpi): notably reduced | Observed levels of lung injury (SARS-CoV-2; H&E histology): mitigated | Lung viral load reduction (SARS-CoV-2; higher dose (50 mg/kg oral BID), 4 and 6 dpi): > 90% | Lung viral titer (PFU) (SARS-CoV-2; oral BID 20 and 50 mg/kg, all time points (2, 4, 6 dpi)): dose-dependently reduced | Viral titer in mouse lungs ([1]; 3 dpi, both treatments (pre and post), 40 mg/kg oral BID): substantialy decreased | TFEB IHC signal in the airways ([1]; mouse lung, 6 dpi): increase | Survival (mice survived) ([1]; post-treat: 40 mg/kg 12 hours after infection): 2/5 | Survival (mice survived) ([1]; pre-treat: 40 mg/kg 24 hours before infection): 3/5 | CC50 (Vero E6 cells): > 10 µM | CC50 (in vitro): > 10 µM
